Results published in patent US6156700A, “3-(1,2-Benzisothiazol- and isoxazol-5-yl)-2,4(1H,3H)-pyrimidinedione or thione and 3-(1,2-benzisothiazol- and isoxazol-5-yl)-4(3H)-pyrimidinone or thione herbicidal agents” (American Cyanmid Company, priority 1998, dated 2000).
Several values for one entry are separate records, joined by “and”; a condition that tells them apart may be missing. Identical values can stand only once.

Key:
[1] = test system: IPOSS; assay: Postemergence herbicidal evaluation; type: in vivo
[2] = test system: TRZAWR; assay: Postemergence herbicidal evaluation; type: in vivo
[3] = test system: IPOHE; assay: Postemergence herbicidal evaluation; type: in vivo
[4] = test system: AMBEL; assay: Postemergence herbicidal evaluation; type: in vivo
[5] = test system: GLXMA; assay: Preemergence herbicidal evaluation; type: in vivo
Experimental: The preemergence and postemergence herbicidal properties of certain compounds of the present invention are compared with certain compounds disclosed in U.S. Pat. Nos. 5,484,763 and 5,523,278. The evaluations are performed as described in Examples 185 and 186. Data in Tables V and VI are reported by the compound number given in Example 185 for the compounds of this invention or by comparative compound letter for the compounds disclosed in U.S. Pat. Nos. 5,484,763 and 5,523,278.

[6] = test system: SETVI; assay: Preemergence herbicidal evaluation; type: in vivo; set-up: scale not given here
[7] = test system: CASOB; assay: Preemergence herbicidal evaluation; type: in vivo; set-up: scale not given here
[8] = test system: TRZAWR; assay: Preemergence herbicidal evaluation; type: in vivo; set-up: scale not given here
[9] = test system: CHEAL; assay: Preemergence herbicidal evaluation; type: in vivo; set-up: scale not given here
[10] = test system: AMBEL; assay: Preemergence herbicidal evaluation; type: in vivo; set-up: scale not given here
[11] = test system: IPOSS; assay: Preemergence herbicidal evaluation; type: in vivo; set-up: scale not given here
[12] = test system: ECHCG; assay: Preemergence herbicidal evaluation; type: in vivo; set-up: scale not given here
[13] = test system: ABUTH; assay: Preemergence herbicidal evaluation; type: in vivo; set-up: scale not given here
[14] = test system: GALAP; assay: Preemergence herbicidal evaluation; type: in vivo; set-up: scale not given here
[15] = test system: GLXMAW; assay: Preemergence herbicidal evaluation; type: in vivo; set-up: scale not given here
[16] = test system: ZEAMX; assay: Preemergence herbicidal evaluation; type: in vivo; set-up: scale not given here
[17] = test system: ORYSAT; assay: Postemergence herbicidal evaluation; type: in vivo, Oryza sativa
[18] = test system: GLXMA; assay: Postemergence herbicidal evaluation; type: in vivo
[19] = test system: ABUTH; assay: Postemergence herbicidal evaluation; type: in vivo
[20] = test system: CHEAL; assay: Postemergence herbicidal evaluation; type: in vivo
[21] = test system: ORYSAT; assay: Preemergence herbicidal evaluation; type: in vivo, Oryza sativa; set-up: scale not given here
[22] = test system: GALAP; assay: Postemergence herbicidal evaluation; type: in vivo
[23] = test system: ECHCG; assay: Postemergence herbicidal evaluation; type: in vivo
[24] = test system: GLXMAW; assay: Postemergence herbicidal evaluation; type: in vivo
[25] = test system: ZEAMX; assay: Postemergence herbicidal evaluation; type: in vivo
[26] = test system: SETVI; assay: Postemergence herbicidal evaluation; type: in vivo
[27] = test system: CASOB; assay: Postemergence herbicidal evaluation; type: in vivo

Structure (SMILES): O=C1C2=C(CCCC2)C(=O)N1c1ccc2snc(-c3ccccc3)c2c1 [A]
- herbicidal effect rating ([1]; 0.0157-0.0160 kg/ha): 5.5 and 5.0
- herbicidal effect rating ([1]; 0.0313-0.0320 kg/ha): 9.0 and 6.8
- herbicidal effect rating ([1]; 0.0625-0.0640 kg/ha): 7.5
- herbicidal effect rating ([1]; 0.1250 kg/ha): 8.4
- herbicidal effect rating ([1]; 0.2500 kg/ha): 9.0
- herbicidal effect rating ([1]; 0.5000 kg/ha): 9.0
- herbicidal effect rating ([2]; 0.0157-0.0160 kg/ha): 2
- herbicidal effect rating ([2]; 0.0313-0.0320 kg/ha): 3.8
- herbicidal effect rating ([2]; 0.0625-0.0640 kg/ha): 4.0
- herbicidal effect rating ([2]; 0.1250 kg/ha): 4.3
- herbicidal effect rating ([3]; 0.0157-0.0160 kg/ha): 5.0
- herbicidal effect rating ([3]; 0.0313-0.0320 kg/ha): 5.7
- herbicidal effect rating ([3]; 0.0625-0.0640 kg/ha): 6.0
- herbicidal effect rating ([3]; 0.1250 kg/ha): 7.5
- herbicidal effect rating ([4]; 0.0157-0.0160 kg/ha): 7.0 and 6.0
- herbicidal effect rating ([4]; 0.0313-0.0320 kg/ha): 9.0 and 5.6
- herbicidal effect rating ([4]; 0.0625-0.0640 kg/ha): 6.9
- herbicidal effect rating ([4]; 0.1250 kg/ha): 7.0
- herbicidal effect rating ([4]; 0.2500 kg/ha): 9.0
- herbicidal effect rating ([4]; 0.5000 kg/ha): 9.0
- herbicidal effect rating ([5]; 0.0156-0.0160 kg/ha): 0.0
- herbicidal effect rating ([5]; 0.0313-0.0320 kg/ha): 0.0
- herbicidal effect rating ([6]; 0.0156-0.0160 kg/ha): 0.0
- herbicidal effect rating ([6]; 0.0313-0.0320 kg/ha): 0.0
- herbicidal effect rating ([6]; 0.0620-0.0630 kg/ha): 0.0
- herbicidal effect rating ([6]; 0.1250 kg/ha): 2.5
- herbicidal effect rating ([6]; 0.2500 kg/ha): 2.0
- herbicidal effect rating ([6]; 0.5000 kg/ha): 3.0
- herbicidal effect rating ([7]; 0.0156-0.0160 kg/ha): 0.0
- herbicidal effect rating ([7]; 0.0313-0.0320 kg/ha): 0.0
- herbicidal effect rating ([7]; 0.0620-0.0630 kg/ha): 0.0
- herbicidal effect rating ([7]; 0.1250 kg/ha): 1.5
- herbicidal effect rating ([7]; 0.2500 kg/ha): 2.0
- herbicidal effect rating ([7]; 0.5000 kg/ha): 2.0
- herbicidal effect rating ([8]; 0.0156-0.0160 kg/ha): 0.0
- herbicidal effect rating ([8]; 0.0313-0.0320 kg/ha): 0.0
- herbicidal effect rating ([8]; 0.0620-0.0630 kg/ha): 0.0
- herbicidal effect rating ([8]; 0.1250 kg/ha): 0.0
- herbicidal effect rating ([9]; 0.0156-0.0160 kg/ha): 2.0
- herbicidal effect rating ([9]; 0.0620-0.0630 kg/ha): 2.5
- herbicidal effect rating ([9]; 0.1250 kg/ha): 5.0
- herbicidal effect rating ([9]; 0.2500 kg/ha): 7.0
- herbicidal effect rating ([9]; 0.5000 kg/ha): 9.0
- herbicidal effect rating ([10]; 0.0156-0.0160 kg/ha): 0.0
- herbicidal effect rating ([10]; 0.0620-0.0630 kg/ha): 2.0
- herbicidal effect rating ([10]; 0.1250 kg/ha): 3.5
- herbicidal effect rating ([10]; 0.2500 kg/ha): 6.0
- herbicidal effect rating ([10]; 0.5000 kg/ha): 5.0
- herbicidal effect rating ([11]; 0.0156-0.0160 kg/ha): 0.0
- herbicidal effect rating ([11]; 0.0313-0.0320 kg/ha): 0.0
- herbicidal effect rating ([11]; 0.0620-0.0630 kg/ha): 0.0
- herbicidal effect rating ([11]; 0.1250 kg/ha): 0.0
- herbicidal effect rating ([11]; 0.2500 kg/ha): 0.0
- herbicidal effect rating ([11]; 0.5000 kg/ha): 2.0
- herbicidal effect rating ([12]; 0.0156-0.0160 kg/ha): 0.0
- herbicidal effect rating ([12]; 0.0313-0.0320 kg/ha): 0.0
- herbicidal effect rating ([12]; 0.0620-0.0630 kg/ha): 0.0
- herbicidal effect rating ([12]; 0.1250 kg/ha): 0.0
- herbicidal effect rating ([12]; 0.2500 kg/ha): 0.0
- herbicidal effect rating ([12]; 0.5000 kg/ha): 0.0
- herbicidal effect rating ([13]; 0.0156-0.0160 kg/ha): 0.0
- herbicidal effect rating ([13]; 0.0313-0.0320 kg/ha): 0.0
- herbicidal effect rating ([13]; 0.0620-0.0630 kg/ha): 0.0
- herbicidal effect rating ([13]; 0.1250 kg/ha): 5.0
- herbicidal effect rating ([13]; 0.2500 kg/ha): 6.0
- herbicidal effect rating ([13]; 0.5000 kg/ha): 7.0
- herbicidal effect rating ([14]; 0.0313-0.0320 kg/ha): 5.5
- herbicidal effect rating ([14]; 0.0620-0.0630 kg/ha): 4.5
- herbicidal effect rating ([14]; 0.1250 kg/ha): 7.0
- herbicidal effect rating ([14]; 0.2500 kg/ha): 9.0
- herbicidal effect rating ([14]; 0.5000 kg/ha): 9.0
- herbicidal effect rating ([15]; 0.0313-0.0320 kg/ha): 0.0
- herbicidal effect rating ([15]; 0.0620-0.0630 kg/ha): 0.0
- herbicidal effect rating ([15]; 0.1250 kg/ha): 0.0
- herbicidal effect rating ([15]; 0.2500 kg/ha): 0.0
- herbicidal effect rating ([15]; 0.5000 kg/ha): 0.0
- herbicidal effect rating ([16]; 0.0156-0.0160 kg/ha): 0.0
- herbicidal effect rating ([16]; 0.0313-0.0320 kg/ha): 0.0
- herbicidal effect rating ([16]; 0.0620-0.0630 kg/ha): 0.0
- herbicidal effect rating ([16]; 0.1250 kg/ha): 0.0
- herbicidal effect rating ([16]; 0.2500 kg/ha): 0.0
- herbicidal effect rating ([16]; 0.5000 kg/ha): 0.0
- herbicidal effect rating ([17]; 0.0157-0.0160 kg/ha): 2.0
- herbicidal effect rating ([17]; 0.0313-0.0320 kg/ha): 2.3 and 2.1
- herbicidal effect rating ([17]; 0.0625-0.0640 kg/ha): 2.6
- herbicidal effect rating ([17]; 0.1250 kg/ha): 2.9
- herbicidal effect rating ([17]; 0.2500 kg/ha): 3.6
- herbicidal effect rating ([17]; 0.5000 kg/ha): 4.5
- herbicidal effect rating ([18]; 0.0157-0.0160 kg/ha): 3.5
- herbicidal effect rating ([18]; 0.0313-0.0320 kg/ha): 4.3
- herbicidal effect rating ([19]; 0.0313-0.0320 kg/ha): 9.0 and 7.8
- herbicidal effect rating ([19]; 0.0625-0.0640 kg/ha): 8.6
- herbicidal effect rating ([19]; 0.1250 kg/ha): 9.0
- herbicidal effect rating ([19]; 0.2500 kg/ha): 9.0
- herbicidal effect rating ([19]; 0.5000 kg/ha): 9.0
- herbicidal effect rating ([20]; 0.0157-0.0160 kg/ha): 9.0 and 5.8
- herbicidal effect rating ([20]; 0.0313-0.0320 kg/ha): 9.0 and 6.3
- herbicidal effect rating ([20]; 0.0625-0.0640 kg/ha): 7.1
- herbicidal effect rating ([20]; 0.1250 kg/ha): 7.9
- herbicidal effect rating ([20]; 0.2500 kg/ha): 9.0
- herbicidal effect rating ([20]; 0.5000 kg/ha): 9.0
- herbicidal effect rating ([21]; 0.0156-0.0160 kg/ha): 0.0
- herbicidal effect rating ([21]; 0.0620-0.0630 kg/ha): 0.5
- herbicidal effect rating ([21]; 0.1250 kg/ha): 0.5
- herbicidal effect rating ([21]; 0.2500 kg/ha): 3.0
- herbicidal effect rating ([21]; 0.5000 kg/ha): 3.0
- herbicidal effect rating ([22]; 0.0157-0.0160 kg/ha): 5.5 and 3.8
- herbicidal effect rating ([22]; 0.0625-0.0640 kg/ha): 5.4
- herbicidal effect rating ([22]; 0.1250 kg/ha): 6.4
- herbicidal effect rating ([22]; 0.2500 kg/ha): 8.3
- herbicidal effect rating ([22]; 0.5000 kg/ha): 9.0
- herbicidal effect rating ([23]; 0.0157-0.0160 kg/ha): 1.0 and 0.5
- herbicidal effect rating ([23]; 0.0313-0.0320 kg/ha): 1.0 and 0.6
- herbicidal effect rating ([23]; 0.0625-0.0640 kg/ha): 1.0
- herbicidal effect rating ([23]; 0.1250 kg/ha): 1.8
- herbicidal effect rating ([23]; 0.2500 kg/ha): 2.7
- herbicidal effect rating ([23]; 0.5000 kg/ha): 2.0
- herbicidal effect rating ([24]; 0.0157-0.0160 kg/ha): 4.0
- herbicidal effect rating ([24]; 0.0313-0.0320 kg/ha): 4.0
- herbicidal effect rating ([24]; 0.0625-0.0640 kg/ha): 4.6
- herbicidal effect rating ([24]; 0.1250 kg/ha): 4.6
- herbicidal effect rating ([24]; 0.2500 kg/ha): 4.6
- herbicidal effect rating ([24]; 0.5000 kg/ha): 4.5
- herbicidal effect rating ([25]; 0.0313-0.0320 kg/ha): 4.0 and 3.4
- herbicidal effect rating ([25]; 0.0625-0.0640 kg/ha): 3.7
- herbicidal effect rating ([25]; 0.1250 kg/ha): 4.2
- herbicidal effect rating ([25]; 0.2500 kg/ha): 3.8
- herbicidal effect rating ([25]; 0.5000 kg/ha): 4.0
- herbicidal effect rating ([26]; 0.0157-0.0160 kg/ha): 1.0 and 1.2
- herbicidal effect rating ([26]; 0.0313-0.0320 kg/ha): 1.0 and 1.6
- herbicidal effect rating ([26]; 0.0625-0.0640 kg/ha): 2.1
- herbicidal effect rating ([26]; 0.1250 kg/ha): 3.0
- herbicidal effect rating ([26]; 0.2500 kg/ha): 2.7
- herbicidal effect rating ([26]; 0.5000 kg/ha): 2.0
- herbicidal effect rating ([27]; 0.0625-0.0640 kg/ha): 7.9
- herbicidal effect rating ([27]; 0.1250 kg/ha): 8.9
- herbicidal effect rating ([27]; 0.2500 kg/ha): 9.0
- herbicidal effect rating ([27]; 0.5000 kg/ha): 9.0
